Reference: patent US10344032B2, “Agents for treating neurogenic inflammation and neuropathic hyperalgesia related disorders” (PÉCSI TUDOMÁNYEGYETEM, priority 2014, dated 2019)

What was measured:
rat [1] = assay: Mustard oil-induced acute neurogenic inflammation in the paw skin of the rat (Evans blue leakage); format: in vivo; details: 100 μg/kg p.o. 60 min before 1% mustard oil; vs vehicle-treated control; listed as BST-1693
Procedure: Deep anaesthesia was performed with sodium-thiopental (50 mg/kg i.p.). Both hindlegs of the rats were acutely denervated (the sciatic and the saphenous nerves were cut 30 min before the induction of inflammation) to avoid the influence of reflex mechanisms. Inflammation in the dorsal skin of the hindpaws was evoked by topical application of 1% mustard oil dissolved in paraffin oil. This compound selectively activates capsaicin-sensitive peptidergic fibres through the TRPA1 ion channel, therefore induces acute inflammatory reaction with exclusively neurogenic mechanisms via the release of pro-inflammatory sensory neuropeptides, such as substance P and CGRP. Extravasation of plasma albumin was measured by the Evans blue leakage method (see FIG. 2). Evans blue (50 mg/kg) which binds to plasma albumine, was injected i.v. and neurogenic inflammation was induced 5 min later. […] The amount of the accumulated Evans blue, which quantitatively correlates with the intensity of plasma extravasation, was expressed as μg dye/g wet skin (Helyes et at, 1997, 2001, 2006; Borzsei et al., 2008). […]
Extravasation of plasma albumin in the dorsal skin of the hindpaws was measured by the Evans blue leakage method. […] The skin of the hindpaws was removed, their weight was measured and the extravasated dye was extracted with formamide at room temperature during 72 h for photometric determination at 620 nm. […]

rat [2] = assay: Plantar incision-induced heat allodynia (increasing temperature water bath), postoperative pain model; format: in vivo; details: 100 μg/kg p.o., measured 60 min later; one day after plantar incision
Procedure: Rats were anaesthesized with sodium-pentobarbital (Euthasol, 40 mg/kg i.p.) and a 1 cm longitudinal incision was made through the skin, fascia and muscle of the plantar aspect of the hindpaw. Significant decrease of both the thermonociceptive and mechanonociceptive thresholds (heat and mechanical allodynia) of the paw develops 1 day after this procedure.
One hundred and forty five (145) female Wistar rats (150-250 g) kept in the Animal House of the University of Pecs in a temperature-controlled room provided with a 12-hour light-dark cycle, standard rat chow and water ad libitum were used in this experimental series. […] Touch sensitivity was measured with a dynamic plantar aesthesiometer (DPA) and the thermonociceptive threshold was determined with an increasing temperature water-bath (ITWB) on the same rats (see below). […] Test compounds were administered p.o. and post-dose touch sensitivity and thermonociceptive thresholds were measured 60 min later. […]
b) The thermonociceptive threshold of the paw was determined with an increasing temperature water bath developed and validated in our laboratories in cooperation with Experimetria Ltd. (Budapest, Hungary). […] The controlling unit has a 30° C. starting temperature, heating rate and a display continuously showing the actual bath temperature measured by a thermocouple at the middle position 35 mm below the water level. […]

sst4 receptor = molecular target: T1, sst4 receptor (Homo sapiens, UniProt P31391); assay: Somatostatin sst4 receptor-coupled G-protein activation assay ([35S]GTPγS binding); format: biochemical; details: 100 nM concentration; membrane fractions of CHO cells stably expressing the sst4 receptor; percentage over specific binding in absence of agonists
T1 construct: expressed in transfected cells
From the text: [^35S]GTPγS binding assay is a functional test determining agonist-induced and receptor-mediated G-protein activation which is based on the increase in guanine nucleotide exchange at G-proteins upon agonist stimulation. The interaction of a G protein-coupled receptor (GPCR) with the G protein is the first step in the transduction of the receptor binding signal to the activation of the second-messenger systems. We measured the level of [^35S]-GTPγS bound to the α subunit of G proteins and determined the efficacy of the compounds. Compounds which elicited 200% [^35S]GTPγS binding in nanomolar concentration were considered effective agonist. The examined compounds were added into the medium in 1 nM, 10 nM, 100 nM 1 μM and 10 μM concentrations.
Membrane fractions were prepared from CHO cells stably expressing the sst4 receptor in Tris-EGTA buffer (50 mM Tris-HCl, 1 mM EGTA, 3 mM MgCl2, 100 mM NaCl, pH 7.4). These membrane fractions (˜10 μg of protein/sample) were incubated at 30° C. for 60 min in the same Tris-EGTA buffer containing [^35S]GTPγS (0.05 nM) and increasing concentrations (10^−9 to 10^−5 M) of test compounds in the presence of 30 μM GDP in a final volume of 500 μl. Non-specific binding was determined in the presence of 10 μM unlabelled GTPγS. Total binding was measured in the absence of test compounds. To calculate the specific binding, non-specific binding was subtracted from total binding. The reaction was terminated by filtrating the samples through Whatman GF/B glass fiber filters. Using 48-well Slot Blot Manifold from Cleaver Scientific filters were washed three times with ice-cold 50 mM Tris-HCl buffer (pH 7.4). After drying for 60 min at 37° C., radioactivity was measured in scintillation liquid in a Packard Tri-Carb 2800 TR scintillation counter. Test compound-induced G-protein stimulation was given as percentage over the specific [^35S]GTPγS binding observed in the absence of agonists.

[3] = Analgesic and anti-inflammatory models shown within the examples; details: in vivo

T1 sequence (P31391 whole entry): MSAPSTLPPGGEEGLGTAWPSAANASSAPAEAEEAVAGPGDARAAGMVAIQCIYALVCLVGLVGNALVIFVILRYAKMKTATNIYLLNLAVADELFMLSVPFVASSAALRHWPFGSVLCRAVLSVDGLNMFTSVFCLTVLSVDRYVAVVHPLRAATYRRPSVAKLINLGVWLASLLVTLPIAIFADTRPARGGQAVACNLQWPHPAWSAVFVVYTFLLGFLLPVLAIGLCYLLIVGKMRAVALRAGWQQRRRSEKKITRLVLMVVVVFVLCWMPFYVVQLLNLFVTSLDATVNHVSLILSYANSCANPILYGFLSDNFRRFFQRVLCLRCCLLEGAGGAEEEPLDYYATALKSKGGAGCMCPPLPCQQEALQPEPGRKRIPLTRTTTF

Structure (SMILES)	melting point [°C]	inhibition of acute neurogenic inflammatory response (Evans blue accumulation in hindpaw skin) (rat [1]) [%]	effectiveness in inhibiting the decrease of the heat threshold (rat [2]) [%]	[35S]GTPγS binding (G-protein activation) (sst4 receptor) [%]	activity in the analgesic and anti-inflammatory models [3]
Cc1c(C)n(Cc2ccccc2)c2ncnc(NCCc3ccc(N)cc3)c12 [Example 1, [2-(4-Amino-phenyl)-ethyl]-(7-benzyl-5,6-dimethyl-7H-pyrrolo[2,3-d]pyrimidin-4-yl)-amine]	150.7 to 151.8	70.4	–	–	–
CC(=O)Nc1ccc(CCNc2ncnc3c2c(C)c(C)n3Cc2ccccc2)cc1 [Example 3, N-{4-[2-(7-Benzyl-5,6-dimethyl-7H-pyrrolo[2,3-d]pyrimidin-4-ylamino)-ethyl]-phenyl}-acetamide]	186.9 to 187.7	–	18.2	210.67	–
COc1ccc(CCNc2ncnc3c2cc(C)n3Cc2ccc(OC)c(OC)c2)cc1OC [compound (a)]	–	–	–	–	totally inactive
